# Laboratory results from patent US7612089B2, “Tetrahydroisoquinolines as factor Xa inhibitors” (Portola Pharmaceuticals, Inc., priority 2004, dated 2009).
# Target: T1, human plasma protein factor Xa (Homo sapiens, UniProt P00742)
# T1 construct: The human plasma protein factor Xa was purchased; purchased Haematologic Technologies (Essex Junction, Vt.); host or cells: human plasma
# Assay: Factor Xa IC50 determination (cleavage of paranitroanilide substrate S-2765)
# Assay type: biochemical
# Conditions: fXa 1 nM, S2765 100 μM, Tris buffered saline pH 7.4, room temperature
# Excerpt: This example illustrates methods for evaluating the compounds of the invention, along with results obtained for such assays. The in vitro and in vivo Factor Xa isoform activities of the inventive compounds can be determined by various procedures known in the art, such as a test for their ability to inhibit the activity of the Factor Xa isoform. […] The IC50 value is the concentration (in nM) of the compound required to provide 50% inhibition of Factor Xa isoform.
# An in vitro assay for detecting and measuring inhibition activity against Factor Xa is as follows:
# IC50 and Ki Determinations:
# The substrate S-2765 (Z-D-Arg-Gly-Arg-pNA.HCl) was obtained from Diapharma (West Chester, Ohio).
# The human plasma protein factor Xa was purchased from Haematologic Technologies (Essex Junction, Vt.).
# All assays, which are performed in 96-well microtiter plates, measure proteolytic activity of the enzyme (factor Xa) by following cleavage of paranitroanilide substrate. The assay buffer used for proteolytic assays was Tris buffered saline (20 mM Tris, 150 mM NaCl, 5 mM CaCl2, 0.1% Bovine serum albumin (BSA), 5% Dimethly Sulfoxide (DMSO) pH 7.4). In a 96-well microtiter plate, inhibitor was serially diluted to give a range of concentrations from 0.01 nM to 10 μM (final). Duplicate sets of wells were assayed and control wells without inhibitor were included. Enzyme was added to each well, (fXa concentration=1 nM), the plate was shaken for 5 seconds and then incubated for 5 minutes at room temperature. S2765 was added (100 μM final) and the plate was shaken for 5 seconds (final liquid volume in each well was 200 μl). The degree of substrate hydrolysis was measured at 405 nm on a Thermomax plate reader (Molecular Devices, Sunnyvale, Calif.) for 2 minutes. The initial velocities (mOD/min), for each range of inhibitor concentrations, were fitted to a four parameter equation using Softmax data analysis software. The parameter C, derived from the resulting curve-fit, corresponded to the concentration for half maximal inhibition (IC50).
# T1 sequence (P00742 235-488 limits assumed): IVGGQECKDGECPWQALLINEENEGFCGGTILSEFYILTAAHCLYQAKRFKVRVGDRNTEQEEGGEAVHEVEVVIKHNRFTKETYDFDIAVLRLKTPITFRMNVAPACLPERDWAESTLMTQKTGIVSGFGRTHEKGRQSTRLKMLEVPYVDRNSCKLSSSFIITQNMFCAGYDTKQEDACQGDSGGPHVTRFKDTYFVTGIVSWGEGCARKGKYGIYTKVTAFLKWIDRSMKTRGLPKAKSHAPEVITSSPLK
# T1 sequence (P00742 41-179 partner limits assumed): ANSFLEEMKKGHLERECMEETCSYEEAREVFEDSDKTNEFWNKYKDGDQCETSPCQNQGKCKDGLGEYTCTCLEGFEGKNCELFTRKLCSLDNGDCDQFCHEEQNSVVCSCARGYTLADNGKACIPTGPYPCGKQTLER
row,IC50 [nM],Structure (SMILES)
1,≤ 100,"O=C([C@H]1Cc2ccccc2CN1C(=O)Nc1ccc(Cl)cc1)N1CCC(N2CCOCC2=O)CC1 [Example 44, (3R) 4-(3-morpholinon-4-yl)piperidin-1-yl 2N-(4-chlorophenylaminocarbonyl)-1,2,3,4-tetrahydroisoquinoline-3-carboxamide]"
2,≤ 100,"O=C(Nc1ccc(-n2ccccc2=O)cc1)C1Cc2cc(O)ccc2CN1C(=O)Nc1ccc(Cl)cc1 (centres unmarked) [Example 39, N-[4-(2-pyridon-1-yl)phenyl]-2N-(4-chlorophenylaminocarbonyl)-6-hydroxy-1,2,3,4-tetrahydroisoquinoline-3-carboxamide]"
3,≤ 100,"CN1CCN=C1c1ccc(NC(=O)C2Cc3sccc3CN2C(=O)Nc2ccc(Cl)cc2)cc1 (centres unmarked) [Example 25, N-[4-(1-methyl-4,5-dihydro-1H-imidazol-2-yl)phenyl]-5N-(4-chlorophenylaminocarbonyl)-4,5,6,7-tetrahydro-thieno[3,2-c]pyridine-6-carboxamide]"
4,≥ 500,"CN(C)C(=N)c1cccc(CNC(=O)C2Cc3ccccc3CN2C(=O)Nc2ccc(Cl)cc2)c1 (centres unmarked) [Example 6, N-[3-(dimethylaminoimino)benzyl]-2N-(4-chlorophenylaminocarbonyl)-1,2,3,4-tetrahydroisoquinoline-3-carboxamide]"
5,≤ 100,"Cc1cccc2c1CC(C(=O)Nc1ccc(C(=N)N(C)C)cc1)N(C(=O)Nc1ccc(Cl)cc1)C2 (centres unmarked) [Example 20, N-[4-(dimethylaminoimino)phenyl]-2N-(4-chlorophenylaminocarbonyl)-5-methyl-1,2,3,4-tetrahydroisoquinoline-3-carboxamide]"
6,100 to 500,"O=C(Nc1ccc(-c2cccc[n+]2[O-])cc1)C1Cc2ccccc2N1C(=O)Nc1ccc(Cl)cc1 (centres unmarked) [Example 32, N-[4-(1N-oxo-pyridin-2-yl)phenyl]-1N-(4-chlorophenylaminocarbonyl)-indoline-2-carboxamide]"
7,≤ 100,"CN1CCN=C1c1ccc(NC(=O)C2c3ccccc3CN2C(=O)Nc2ccc(Cl)cc2)cc1 (centres unmarked) [Example 28, N-[4-(1-methyl-4,5-dihydro-1H-imidazol-2-yl)phenyl]-2N-(4-chlorophenylaminocarbonyl)-2,3-dihydro-1H-isoindole-1-carboxamide]"
8,≥ 500,"CC(C)N1CCC(NC(=O)C2Cc3ccccc3CN2C(=O)Nc2ccc(Cl)cc2)CC1 (centres unmarked) [Example 12, N-(1-isopropylpiperidin-4-yl)2N-(4-chlorophenylaminocarbonyl)-1,2,3,4-tetrahydroisoquinoline-3-carboxamide]"
9,≤ 100,"O=C(Nc1ccc(-n2ccccc2=S)cc1)C1Cc2cc(O)ccc2CN1C(=O)Nc1ccc(Cl)cc1 (centres unmarked) [Example 41, N-[4-(2-thiopyridon-1-yl)phenyl]-2N-(4-chlorophenylaminocarbonyl)-6-hydroxy-1,2,3,4-tetrahydroisoquinoline-3-carboxamide]"
10,≤ 100,"CN1CCN=C1c1ccc(NC(=O)[C@@H]2Cc3ccccc3CN2C(=O)Nc2ccc(Cl)cc2)cc1 [3(S), (3S)-N-[4-(1-methyl-4,5-dihydro-1H-imidazol-2-yl)phenyl]-2N-(4-chlorophenylaminocarbonyl)-1,2,3,4-tetrahydroisoquinoline-3-carboxamide]"
11,≤ 100,"CN(C)C(=N)c1ccc(NC(=O)C2Cc3ccccc3CN2C(=O)Nc2ccc(Cl)cc2)cc1 (centres unmarked) [Example 5, N-[4-(dimethylaminoimino)phenyl]-2N-(4-chlorophenylaminocarbonyl)-1,2,3,4-tetrahydroisoquinoline-3-carboxamide]"
12,≤ 100,"CN1CCCN(c2ccc(NC(=O)C3Cc4ccccc4CN3C(=O)Nc3ccc(Cl)cc3)cc2)CC1 (centres unmarked) [Example 10, N-[4-(4-methyl-homopiperazinyl)]phenyl-2N-(4-chlorophenylaminocarbonyl)-1,2,3,4-tetrahydroisoquinoline-3-carboxamide]"
13,≤ 100,"Cc1cccc2c1CC(C(=O)Nc1ccc(C(=N)N3CCCC3)cc1)N(C(=O)Nc1ccc(Cl)cc1)C2 (centres unmarked) [Example 19, N-[4-(pyrrolidinylimino)phenyl]-2N-(4-chlorophenylaminocarbonyl)-5-methyl-1,2,3,4-tetrahydroisoquinoline-3-carboxamide]"
14,≤ 100,"CN1CCCN(c2ccc(NC(=O)C3Cc4cc(O)ccc4CN3C(=O)Nc3ccc(Cl)cc3)cc2)CC1 (centres unmarked) [Example 40, N-[4-(4-methyl-homopiperazinyl)phenyl]-2N-(4-chlorophenylaminocarbonyl)-6-hydroxy-1,2,3,4-tetrahydroisoquinoline-3-carboxamide]"
15,≤ 100,"O=C(Nc1ccc(-c2cccc[n+]2[O-])cc1)C1c2ccccc2CN1C(=O)Nc1ccc(Cl)cc1 (centres unmarked) [Example 29, N-[4-(1N-oxo-pyridin-2-yl)phenyl]-2N-(4-chlorophenylaminocarbonyl)-2,3-dihydro-1H-isoindole-1-carboxamide]"
16,≤ 100,"CN1CCCN(c2ccc(NC(=O)C3Cc4sccc4CN3C(=O)Nc3ccc(Cl)cc3)cc2)CC1 (centres unmarked) [Example 27, N-[4-(4-methyl-homopiperazinyl)]phenyl-5N-(4-chlorophenylaminocarbonyl)-4,5,6,7-tetrahydro-thieno[3,2-c]pyridine-6-carboxamide]"
17,100 to 500,"CN1CCCN(c2ccc(NC(=O)C3c4ccccc4CN3C(=O)Nc3ccc(Cl)cc3)cc2)CC1 (centres unmarked) [Example 30, N-[4-(4-methyl-homopiperazinyl)phenyl]-2N-(4-chlorophenylaminocarbonyl)-2,3-dihydro-1H-isoindole-1-carboxamide]"
18,≤ 100,"CN1CCCN(c2ccc(NC(=O)[C@H]3Cc4ccccc4CN3C(=O)Nc3ccc(Cl)cc3)cc2)C(=O)C1 [Example 46, (3R) N-[4-(4-methyl-2-homopiperazinon-1-yl)phenyl]-2N-(4-chlorophenylaminocarbonyl)-1,2,3,4-tetrahydroisoquinoline-3-carboxamide]"
19,≤ 100,"CN1CCN=C1c1ccc(NC(=O)C2Cc3cc(O)ccc3CN2C(=O)Nc2ccc(Cl)cc2)cc1 (centres unmarked) [Example 24, N-[4-(1-methyl-4,5-dihydro-1H-imidazol-2-yl)phenyl]-2N-(4-chlorophenylaminocarbonyl)-6-hydroxy-1,2,3,4-tetrahydroisoquinoline-3-carboxamide]"
20,≤ 100,"Cc1cccc2c1CC(C(=O)Nc1ccc(C3=NCCN3C)cc1)N(C(=O)Nc1ccc(Cl)cc1)C2 (centres unmarked) [Example 18, N-[4-(1-methyl-4,5-dihydro-1H-imidazol-2-yl)phenyl]-2N-(4-chlorophenylaminocarbonyl)-5-methyl-1,2,3,4-tetrahydroisoquinoline-3-carboxamide]"
21,≤ 100,"CN1CCN=C1c1ccc(NC(=O)C2Cc3ccccc3CN2C(=O)Nc2ccc(Cl)cc2)cc1 (centres unmarked) [Example 1, N-[4-(1-methyl-4,5-dihydro-1H-imidazol-2-yl)phenyl]-2N-(4-chlorophenylaminocarbonyl)-1,2,3,4-tetrahydroisoquinoline-3-carboxamide]"
22,≤ 100,"O=C(Nc1ccc(-c2cccc[n+]2[O-])cc1)C1Cc2ccccc2CN1C(=O)Nc1ccc(Cl)cc1 (centres unmarked) [Example 2, N-[4-(1N-oxo-pyridin-2-yl)phenyl]-2N-(4-chlorophenylaminocarbonyl)-1,2,3,4-tetrahydroisoquinoline-3-carboxamide]"
23,≤ 100,"O=C(Nc1ccc(-n2ccccc2=O)cc1)[C@H]1Cc2ccccc2CN1C(=O)Nc1ccc(Cl)s1 [Example 48, (3R) N-[4-(2-pyridon-1-yl)phenyl]-2N-[5-(2-chlorothiophene)aminocarbonyl]-1,2,3,4-tetrahydroisoquinoline-3-carboxamide]"
